Literature values in US20050009919A1, “Treating cachexia and excessive catabolism with (-)-hydroxycitric acid” (priority 2003, published 2005).

| Molecule | Appetite suppression in clinical trials (Heymsfield 1998, Mattes 2000) | Weight change in clinical trials (Heymsfield 1998, Mattes 2000) | Anorectic results in clinical trials (1.2 grams to 3 grams of HCA per day, divided doses before meals) |
| --- | --- | --- | --- |
| O=C(O)CC(O)(C(=O)O)C(O)C(=O)O (single isomer, unassigned; (-)) [HCA, (−)-Hydroxycitric acid] | failed to produce appetite suppression | not-statistically-significant trends toward weight elevation | – |
| calcium (−)-hydroxycitrate [reference compound] | – | – | failed to produce anorectic results |
